In publication PMC1805503 (Beilstein Journal of Organic Chemistry, 2007):

Assays:
[1] = test system: KOR; parameters: method as in PMID 14718611; conditions: [3H]bremazocine as radiolabeled ligand; cited from earlier work
[2] = target: T1, human KOR (Homo sapiens, UniProt P41145); test: biochemical; conditions: read-out: Emax ± SEM
T1 construct: expressed in transfected cells; host or cells: CHO cells expressing hKOR (membranes), according to the assay names of the earlier reading
T1 sequence (P41145 whole entry): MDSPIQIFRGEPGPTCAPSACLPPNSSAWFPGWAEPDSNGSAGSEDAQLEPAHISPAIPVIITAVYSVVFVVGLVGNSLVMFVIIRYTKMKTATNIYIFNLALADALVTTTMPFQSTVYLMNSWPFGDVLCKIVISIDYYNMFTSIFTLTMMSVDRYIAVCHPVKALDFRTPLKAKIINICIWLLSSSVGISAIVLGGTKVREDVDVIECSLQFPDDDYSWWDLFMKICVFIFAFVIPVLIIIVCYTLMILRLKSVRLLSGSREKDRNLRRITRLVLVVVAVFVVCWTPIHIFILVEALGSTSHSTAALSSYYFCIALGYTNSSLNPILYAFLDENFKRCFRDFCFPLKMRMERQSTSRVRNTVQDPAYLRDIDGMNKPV

| SMILES | activity at the KOR (in words), early report [1] | Emax [2] [%] |
| --- | --- | --- |
| COC(=O)[C@@H]1C[C@H](O)C(=O)[C@H]2[C@@]1(C)CC[C@H]1C(=O)O[C@H](c3ccoc3)C[C@]21C [Compound 2a, salvinorin B] | inactive | – |
| COC(=O)C1CC(O)C(=O)C2C1(C)CCC1C(=O)OC(c3ccoc3)CC12C (stereo not drawn) [Compound 2b, 8-epi-salvinorin B] | – | 90 ± 2 |
